Data as given in article PMC10803328 (Scientific Reports, 2024).
Entries after “also recorded” stand apart in the source; their conditions may differ. Read-outs that look alike come from different tables or passages of the source.

Experiments:
α7-nAChR = molecular target: α7-nAChR; design: method as in PMID 30872534, PMID 24556591; conditions: cited from earlier work; for Ki: in vitro binding assay, literature
α4β2 nAChR = molecular target: α4β2 nAChR; design: method as in PMID 30872534, PMID 24556591; conditions: in vitro binding assay, literature; cited from earlier work
PSAM^4-GlyR [1] = test system: PSAM^4-GlyR; design: method as in PMID 30872534; conditions: rhesus monkey, globus pallidus internal region (GPi), PSAM^4-GlyR activated by the ligand; cited from earlier work
[2] = Measurement of apparent pKa by radiotracer partition; assay type: physicochemical; conditions: cyclohexane / sodium phosphate buffer partition; cyclohexane / phosphate buffers pH 3.0-10.5, n = 3
Description: The method was similar to that followed previously for other radiotracers. Sodium phosphate buffers (0.15 M), with pH values of 3.0, 3.5, 4.0, 4.5, 5.0, 5.5, 6.0, 6.5, 7.0, 7.4, 8.0, 8.5, 9.0, 9.5, 10.0, and 10.5, were prepared from 0.15 M NaH2PO4 and 0.1 M Na2HPO4 and distributed (1 mL per tube) as the aqueous phase. [^11C]uPSEM, formulated in ethanol (20 µL, 2.4 ± 0.3 MBq, n = 48), was added to each tube. Triple sets of such tubes were prepared simultaneously. Cyclohexane (1.0 mL) was added to each of the tubes containing the buffer and the [^11C]uPSEM and then vigorously vortexed for 1 min. The tubes were then centrifuged for one minute. The two phases in each tube were separated, sampled (50 µL aqueous, 200 µL organic) and counted in a γ-counter. Distribution coefficients at each pH were calculated by dividing the counts detected in the organic phase by the total activity present in both phases. These distribution coefficients were plotted versus pH and nonlinear regression analysis applied with GraphPad Prism version 4.03 for windows (GraphPad Software; San Diego, CA) using “One site competition” curve-fitting. […] The radiochemical purity of the [^11C]uPSEM preparation was 98.8% as determined by radio-HPLC on an X-Terra […] column (10 µm, 7.8 × 300 mm; Waters Corp.) and a mobile phase of MeOH:H2O:Et3N (55:45:0.1, by vol) at 5.0 mL/min.

P-gp = conditions: cited from earlier work
PSAM^4-GlyR [3] = test system: PSAM^4-GlyR; design: method as in PMID 30872534; conditions: PSAM^4-GlyR transduced mouse; cited from earlier work
PSAM^4-GlyR [4] = test system: PSAM^4-GlyR; design: method as in PMID 30872534; conditions: area CA1 of mouse hippocampal neurons, acting on PSAM^4-GlyR; cited from earlier work
PSAM^4-GlyR [5] = molecular target: T1, PSAM^4-GlyR (Homo sapiens, UniProt P23415+P36544, L131G/Q139L/Y217F); design: expressed in transfected cells; method as in PMID 30872534, PMID 24556591, PMID 36279419; conditions: read-out: PSAM^4-GlyR (Ki); in vitro binding assay, literature; cited from earlier work
PSAM^4-GlyR [6] = molecular target: T1, PSAM^4-GlyR; test: Competitive binding assay with [^3H]ASEM on membranes of HEK-293 cells transduced with PSAM^4-GlyR; design: expressed in transfected cells; host or cells: HEK-293 (membrane fraction)
Description: HEK-293 cells were transduced with plasmids (5 μg per dish) of encoding PSAM^4-GlyR (in pcDNA3.1) or a control vector (GFP) and harvested 48 h after transduction. Cells were suspended in Tris–HCl buffer (50 mM, pH 7.4) supplemented with a protease inhibitor cocktail (1:100, Sigma-Aldrich; St Louis, MO). HEK-293 cells were disrupted with a Polytron homogenizer (Kinematica; Basel, Switzerland). Homogenates were centrifuged at 48,000g (50 min, 4 °C) and washed twice in the same conditions to isolate the membrane fraction. Protein was quantified by the bicinchoninic acid method (Pierce, ThermoFisher Scientific, MA). […] In all cases, free and membrane-bound radioligand were separated by rapid filtration of 500-μL aliquots in a 96-well plate harvester (Brandel; Gaithersburg, MD) and washed with ice-cold Tris–HCl buffer (2 mL). Microscint-20 scintillation liquid (65 μL per well, PerkinElmer; Boston, MA) was added to the filter plates. Plates were incubated overnight at room temperature and radioactivity counts were determined in a MicroBeta2 plate counter (PerkinElmer) with an efficiency of 41%. One-site competition curves were fitted using Prism 7 (GraphPad Software; La Jolla, CA). Ki values were calculated using the Cheng-Prusoff equation.

T1 sequence (P36544+P23415 fused P36544:L131G/P36544:Q139L/P36544:Y217F): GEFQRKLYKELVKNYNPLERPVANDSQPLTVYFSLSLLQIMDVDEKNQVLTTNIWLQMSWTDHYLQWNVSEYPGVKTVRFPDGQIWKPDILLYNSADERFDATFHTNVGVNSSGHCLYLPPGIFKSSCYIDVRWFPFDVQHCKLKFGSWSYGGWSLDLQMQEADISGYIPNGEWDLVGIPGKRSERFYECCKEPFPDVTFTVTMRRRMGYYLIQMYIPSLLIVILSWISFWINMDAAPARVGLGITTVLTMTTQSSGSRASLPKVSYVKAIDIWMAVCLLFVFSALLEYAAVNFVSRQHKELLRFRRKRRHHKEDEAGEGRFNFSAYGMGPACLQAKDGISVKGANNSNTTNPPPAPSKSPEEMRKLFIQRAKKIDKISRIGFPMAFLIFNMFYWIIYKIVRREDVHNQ

SMILES | Ki (α7-nAChR) [nM] | Ki (α4β2 nAChR) [nM] | effect on neuronal firing rate (PSAM^4-GlyR [1]) | pKa [2] | affinity to α7-nAChRs (in words) (α7-nAChR) | P-gp substrate in vitro (P-gp) | blocking of [^18F]ASEM binding in brain (PSAM^4-GlyR [3]) | neuronal silencing (PSAM^4-GlyR [4]) | Ki (PSAM^4-GlyR [5]) [nM] | Ki (PSAM^4-GlyR [6]) [nM]
O=S1(=O)c2cc(N3CCN4CCC3CC4)ccc2-c2cccc(F)c21 [ASEM] | 0.3 | 4000 |  |  |  |  |  |  |  | 
c1cnc2cc3c(cc2n1)[C@@H]1CNC[C@H]3C1 [Varenicline, varenicline] |  |  | reduces neuronal firing rate |  |  |  |  |  |  | 
Cn1c(=O)cnc2cc3c(cc21)C1CNCC3C1 (centres unmarked) [uPSEM792, 1-Methyl-1,6,7,8,9,10-hexahydro-2H-6,10-methanoazepino[4,5-g]quinoxalin-2-one] | 8000 |  |  | 9.92 ± 0.05 | low affinity | not a P-gp substrate in vitro; also recorded: not to be a P-gp substrate | able to block [^18F]ASEM binding | Neuronal silencing has been shown | 0.7 | 2.62
